Assay results taken from patent US20190292516A1, “METHOD FOR IMPROVING PRODUCT TITER IN A CELL AND A CELL MEDIA FOR IMPROVING THE SAME” (VALITACELL LIMITED, priority 2018, published 2019).

Assays:
Type in all cases: cell-based, Chinese Hamster
[1] = test system: CHO-S stable clone producing an anti-Her2 like IgG1 antibody; assay: Apoptosis analysis of 3TAA supplemented shake flask cultures; conditions: 3TAA 2.5 mM added Day 0, shake flask, analysed Day 5
Procedure: (§1) Shake flask cultures were performed in vented Erlenmeyer flasks with a 30 ml working culture volume. Cells were seeded at 0.2×10^6 cells ml^−1. 3TAA was added at 2.5 mM (optimum concentrations from deep well plate culture) on Day 0. Growth and titer were monitored daily. Total RNA and histone extracts were collected from Day 5 of culture. Cell cycle and apoptosis analysis were performed on Day 4 and Day 5 post seeding respectively.

[2] = test system: CHO-S stable clone producing an anti-Her2 like IgG1 antibody; assay: Cell cycle analysis by propidium iodide staining and flow cytometry; conditions: 3TAA 2.5 mM added Day 0, shake flask, analysed Day 4
Procedure: as §1
1×10^6 cells were extracted from culture and fixed in 4% paraformaldehyde (Alfa Aesar; Thermo Fisher Scientific). The cells were then stained with propidium iodide using the FxCycle™ PI/RNase Staining Solution (Thermo Fisher Scientific). Cell cycle analysis was performed on the Attune Acoustic Focusing Cytometer (Thermo Fisher Scientific).

[3] = test system: CHO-S stable clone producing an anti-Her2 like IgG1 antibody; assay: Deep well shaking plate culture with chemical enhancer added at Day 0 or Day 3; cell growth, viability and titer
Procedure: The Applicant uses a platform consisting of screening Chinese Hamster Ovary (CHO) cell clone leads grown in a deep well plate coated with media containing 3TAA. The cells are measured for increased growth and productivity (titer) to determine whether 3TAA, and other enhancer chemicals, have offered the optimum cell culture environment, and can improve the growth and/or productivity of promising lead clones, which otherwise, grown in sub-optimal conditions, would not have been selected. To establish optimum concentration for the best titer boost, high throughput experimentation was performed in 96 deep well plates (Greiner Bio-One, Gloucestershire, United Kingdom). The cell line used was a CHO-S stable clone producing an anti-Her2 like IgG1 antibody. Cells were cultured in CD CHO medium (Thermo Fisher Scientific, Paisley, UK), supplemented with 8 mM L-glutamine, 1% HT supplement and 12.5 ug/ml puromycin selection marker (Thermo Fisher Scientific, Paisley, UK). Cells grown in these plates were incubated at 320 rpm (25 mm throw), 37° C., 5% CO2 and 85% humidity. The plates were covered with vented lids and secured using clamps (“System Duetz”; Enzyscreen B.V., Heemstede, Netherlands). Cells were seeded at 0.2×10^6 cells ml^−1 with a seeding volume of 450 μL (unless specified otherwise). Chemical enhancer molecules, including 3TAA, were trialled at 4 to 10 different concentrations at Day 0 in culture. Subsequently, a subset of concentrations was carried forward for delayed addition at Day 3 of culture. Day 3 was chosen based on the cell growth profile in deep well plates. Cells were cultured for 5 days before culture attributes (cell growth and titer) were recorded, unless otherwise stated. Cell growth was measured using the PrestoBlue® Assay (ThermoFisher Scientific), viability was verified using the Vi-cell™ cell viability analyser (Beckmann Coulter, High Wycombe, UK), and titer was measured using the Valita™TITER assay (Valitacell, Dublin, Ireland).

[4] = test system: CHO-S stable clone producing an anti-Her2 like IgG1 antibody; assay: Batch shake flask culture supplemented with 3TAA; conditions: 2.5 mM, Day 0 addition, 10 days
Procedure: as §1

[5] = Batch shake flask culture supplemented with 3TAA; conditions: Chinese hamster, CHO-S stable clone producing an anti-Her2 like IgG1 antibody, Day 0 addition
Procedure: as §1

[6] = 3TAA 2.5 mM, Day 0 addition, deep well plate

## O=C(O)Cc1ccsc1 [3TAA, 3-Thiopheneacetic acid]
[1]
  initiation of apoptotic pathways: Apoptotic pathways were not initiated
[2]
  increase in accumulation in the G1 phase: 11%
[3]; 2.5 mM, Day 0 addition
  reduction in IVCD: 25%
  titer boost: 160%
[3]; 2.5 mM, Day 3 addition
  reduction in IVCD: 20%
  titer boost: 177%
[3]; 4 mM, Day 0 addition
  reduction in IVCD: 50%
  titer boost: 17%
[3]; 4 mM, Day 3 addition
  reduction in IVCD: 25%
  titer boost: 125%
[3]; [6]
  cell growth reduction: 25%
  titer boost: 1.59 fold
[3]; delayed addition at exponential phase (Day 3), concentration not given
  titer boost: 2.6 fold
[4]
  culture viability in comparison to vehicle and no addition controls: remained unaffected
  increase in total volumetric titer: 1.9 fold
[5]
  decrease in peak viable cell density at 10 days, 2.5 mM: 30%
